Laboratory results reported in patent publication US7132012B2, “Phthalocyanine compound, ink, ink jet recording method and image forming method” (Fuji Photo Film Co., Ltd., priority 2004, dated 2006).

assay: Color toner image: light fastness property (xenon light); format: physicochemical; conditions: xenon light 85,000 lux, 5 days
Protocol: As for each of the phthalocyanine compounds of the invention (compounds 101, 102, 103 and 107), 3 parts by weight of the compound and 100 parts by weight of a resin for toner [styrene-acrylic acid ester copolymer; trade name HIMER TB-1000F (manufactured by Sanyo Chemical Industries, Ltd.)] were mixed and ground in a ball mill. Then, the mixture was heated to 150° C. to be molten and mixed. After cooling, the mixture was coarsely crushed using a hammer mill, and then, finely pulverized by a pulverizer of an air jet system. The resulting particles were further classified, and 1 to 20 micro was selected, resulting in a toner. To 10 parts of the toner, 900 parts of carrier iron powder (trade name EFV250/400; manufactured by Nippon Iron Powder) was uniformly mixed, resulting in a developer. Similarly, each sample of the comparative coloring agents shown in Table-7 were prepared in the same manner, except that the dye was used in an amount of 3 parts by weight, and the pigment was used in an amount of 6 parts by weight. By the use of these developers, copying was carried out by means of a dry ordinary paper electrophotographic copier [trade name NP-5000; manufactured by CANON, Corp.].
Reflected images (images on paper) and transmitted images (OHP images) were formed on paper and OHP sheets, respectively, with a developer using a color toner containing the compounds of the invention in accordance with the foregoing image forming method, and the evaluation tests were conducted in the following manner. Incidentally, the amount of the toner deposited was evaluated in the range of 0.7±0.05 (mg/cm^2).
The light fastness property was evaluated in the following manner. The image density Ci immediately after recording was measured, and thereafter, the image was irradiated with xenon light (85,000 lux) by means of a weather meter (Atlas C. 165), for 5 days. Then, the image density Cf was measured again, and the coloring matter residual ratio ([…]) was determined from the difference in image density between before and after xenon light irradiation. The image density was measured by means of a reflection densitometer (X-Rite 310TR). In Table-7, the case where the coloring matter residual ratio was 90% or more is indicated with ∘; less than 90 to 80%, Δ; and less than 80%, x.

Compound	Light fastness property
CNc1ccc(O)c2c1C(=O)c1c(O)ccc(NC)c1C2=O [Comparative dye 5]	Δ (less than 90 to 80%, Δ)
Cc1ccc(Nc2ccc(Nc3ccc(C)cc3)c3c2C(=O)c2c(Nc4ccc(C)cc4)ccc(Nc4ccc(C)cc4)c2C3=O)cc1 [Comparative dye 6]	Δ (less than 90 to 80%, Δ)
C.I. Solvent Blue 38	∘ (the case where the coloring matter residual ratio was 90% or more is indicated with ∘)
C.I. Solvent Blue 70	∘ (the case where the coloring matter residual ratio was 90% or more is indicated with ∘)
